One data set deals with CD3^−20uCAR-T cells. As to the kind of experiment: Regulation of U-CAR-T survival by ganciclovir in vivo (Raji xenograft). The settings on record: NSG mice with Raji, FIG. 4C. The procedure:
NSG mice (n=6/group) were injected intravenously with 5×10^5 Raji, which was followed by the administration of 1×10^7 CD3^−20uCAR-T cells on day 7 or two hundred micrograms of Ganciclovir were administered on day 7, 10 and 13. 7 days after the treatment, bone marrow, spleen and peripheral blood were collected for analysis of CAR-T cell (mCD45^−hCD45^+hCD3^+) persistence and Raji (mCD45^−hCD45^+hCD19^+) tumor cell burden (FIG. 4C). Statistical significance was determined by Mann-Whitney U test and presented by *P<0.05, **P<0.01, ***P<0.001; NS: Not Significant. Statistical significance was determined by unpaired t test. Statistical significance was presented by *P<0.05, ***P<0.001.

A further data set deals with U-CAR-T cells. As to the kind of experiment: Regulation of U-CAR-T survival by ganciclovir in vitro. The data set is classed as cell-based, human. The settings on record: ganciclovir 0-3 μg/mL, 48 hours, anti-CD20 and anti-CD19 U-CAR-T, FIG. 4A. The procedure:
The anti-CD20 U-CAR-T cells obtained in Example 1, anti-CD19 U-CAR-T cells (prepared according to the method in Example 1) and the control CAR-T (without knockout of CD3) were inoculated into 96-well plates, and the number of surviving CAR-Ts was compared after 48 hours by adding the indicated concentration of ganciclovir (0, 0.1 μg/mL, 0.3 μg/mL, 1 μg/mL, 3 μg/mL), and the results are shown in FIG. 4A.

The next data set deals with CD3 gene. As to the kind of experiment: sgRNA knockdown efficiency assay (transient transfection, flow detection with anti-TCR antibody). The settings on record: Jurkat cells, 0.6 μg pLenti-CrisprV2 plasmid, harvested at 48 h, FIG. 1F. It counts as cell-based, human. The protocol:
2×10^5 Jurkat cells were transiently transfected with 0.6 μg pLenti-CrisprV2-hCD3E1/E2/D1/D2/Z1/Z2/G1/G2/G3 plasmids and cells were harvested at 48 h. Anti-TCR antibody was used for flow detection and untransfected plasmids were used as negative control.
The box in the figure represented the knockdown efficiency, where Z1 has the highest knockdown efficiency (about 81.2%).

Regarding `Nc1nc(O)c2ncn(COC(CO)CO)c2n1` [ganciclovir], the “clearance of CD3− UCAR-T cells from organs” value in the data set with CD3^−20uCAR-T cells (200 micrograms ganciclovir on day 7, 10 and 13, bone marrow, spleen, peripheral blood) was “effectively cleared”. Further, in the data set on CD3^−20uCAR-T cells (CD3− UCAR-T plus ganciclovir, compared to CD3+ CAR-T), the tumor load result is listed as “elevated tumor load”. The “number of surviving CAR-Ts (survival of U-CAR-T)” value in the data set with U-CAR-T cells was “can regulate the survival of U-CAR-T”.

“Z1: sgRNA for knockout of CD3 zeta, SEQ ID NO: 8, GTGGAAGGCGCTTTTCACCG (listed as DNA, chemistry not given here)”: the knockdown efficiency result in the data set with CD3 gene is given as “about 81.2%”.

The values are drawn from patent publication US12359169B2, “Universal CAR-T cell and preparation method and use thereof” (SHANGHAI LONGYAO BIOTECHNOLOGY INC., LTD., priority 2018, dated 2025).
